Each structure is given as a SMILES string. Some results are limits rather than exact numbers.

These results are taken from a melting point compilation (Tetko et al.; mined from patent text by program, amines drawn as free bases though some values may be those of a salt).

The term melting point denotes the temperature, or range, at which the solid turns liquid.

In turn, `Cc1ccc(S(=O)(=O)NCCC(C(=O)OC(C)(C)C)C2(CC(C)C)CCN(CCc3ccccc3)C2=O)cc1` (stereo not drawn) gave a melting point of 136 to 138 °C.
The figure for `Cc1c(NC(=O)CC(C)(C)C)c(C)c2c(c1-c1ccsc1)OCC2c1ccc(C(C)C)cc1` (stereo not drawn) is 172 to 174 °C.
Turning to `O=C(CCC12CCC(=O)N1C(=O)CC2)Nc1ccncc1`, the melting point lay within 285 to 287 °C.
The figure for `CCCC12CCC3C4CCC(=O)C=C4CCC3C1CCC2OCc1ccccc1` (stereo not drawn) is 198 to 200 °C.
Turning to `COc1cc(N2CCC(N3CCCN(CCO)CC3)CC2)ccc1Nc1ncc2ccc(-c3ccccc3OC)n2n1`, the melting point was in the range of 72 to 80 °C.
The figure for `O=C(O)CN1C(=O)C(=CC=Cc2cccc(-c3ccccc3)c2)SC1=S` is 232 to 237 °C; for `O=c1[nH]c(=O)n(Cc2ccc(Oc3ccc(Cn4oc(=O)[nH]c4=O)cc3)cc2)o1` it is 175 to 178 °C; for `COc1ccc(S(N)(=O)=O)cc1C(=O)C(C)Br` (stereo not drawn) it is 108 to 110 °C.
The figure for `N#Cc1ccc2c(c1)Sc1cc3c(cc1C=C2)CCC3` is 142 to 143 °C; for `CN(C)c1ccc(C(NCCO)C(O)c2ccccc2)cc1` (stereo not drawn) it is 147 to 148 °C.
The figure for `COc1ccc(C=CC(=O)c2ccc(O)cc2)cc1OC` is 193 to 198 °C; for `Cc1cc2c([C@@H]3C[C@H]3CNC(=O)C(F)(F)F)cccn2n1` (relative stereo) it is 136 to 138 °C.
In turn, `COC(=O)c1ccc(Cn2c3c(c4cc(F)cc(F)c42)CCCC3CC(=O)O)cc1` (stereo not drawn) gave a melting point of 169 to 170 °C.
`CCOC(=O)c1cc2c(O)c(C(=O)OCC)n(C)c2nc1C(=O)OCC` gave a melting point of 129 to 130 °C.
In the case of `O=C(CF)NCc1ccc2ccn(C3CCN(CCc4ccc(F)cc4)CC3)c2c1` it was 106 to 108 °C; in that of `O=c1[nH]c2cc([N+](=O)[O-])ccc2cc1P(=O)(O)O`, more than 300 °C.
`O=C(O)C(=O)c1ccc(OCC(=O)C2CCCCCCC2)cc1` displayed a melting point of 109 to 110 °C.
As to `O=C(CNC(=O)OCc1ccc([N+](=O)[O-])cc1)Nc1ccc(C(=O)OCI)cc1`, the melting point was 162 to 164 °C.
In the case of `O=[N+]([O-])c1ccc(NCCCn2ccnc2)c(F)c1` it was 144 °C; in that of `COc1cc2c(cc1[N+](=O)[O-])NC(=O)CN(C(=O)C(F)(F)F)C2`, 204 to 205 °C.
The figure for `O=C(O)CCC(=O)c1c(-c2ccccc2)cc2ccccn12` is 131 to 133 °C; for `Cc1cc(C#CC2CC2)cc(C)c1Oc1ccc([N+](=O)[O-])c(Nc2ccc(C#N)cc2)n1` it is 188 to 192 °C; for `CN(C)c1ccc(/C=C/c2ccccc2F)c2ccccc12` it is 56 to 58 °C.
In the case of `O=C(Nc1ccccc1)N1CC(Oc2ccc(C(F)(F)F)cc2)C1`, the melting point lay in the range of 174 to 176 °C.
The figure for `COc1ccc(CN2CCc3cc(O)ccc3C2)c(OC)c1` is 149 to 152 °C.
Consider `Cc1nc(Sc2cccc(C(F)(F)F)n2)sc1CC(=O)O`, for which the melting point is 162 to 164 °C.
The figure for `CCOC(=O)C1=Cc2cc(C#C[Si](C)(C)C)ccc2NC1C(F)(F)F` (stereo not drawn) is 117 to 119 °C; for `Cc1cc(NC(=O)C2=C(O)c3ccccc3N(c3ccccc3)C2)no1` it is 148 to 150 °C.
Molecule `COc1ccc(N2C(=O)C(=C3CCCN3C)c3ccccc32)cc1` registered a melting point of 90 to 93 °C.
The figure for `CN(C)C(=O)c1cn(Cc2ccccc2Cl)nn1` is 120 to 121 °C; for `Oc1ccc2c(c1)OC(c1ccc(OCCN3CCCCC3)cc1)c1c-2ccc2cc(O)ccc12` (stereo not drawn) it is 158 to 161 °C.
In the case of `CCOC(=O)C(=O)Nc1cc(O)ccc1O` it was more than 300 °C.
The figure for `CCn1cc(C(=O)O)c(=O)c2cc(F)c(O)cc21` is more than 250 °C; for `Cc1cc(NC(=O)c2ccccc2C)ccc1Br` it is 144 to 146 °C.
Consider `CC(C)(SC(=S)c1ccccc1)c1ccc(Cl)cc1`, for which the melting point was in the range of 77 to 78 °C.
In the case of `Cc1cc(C2CC2)nc(NN)n1` it was 98 to 99 °C; in that of `CN(C)C1CCc2c(c3ccccc3n2CCC(=O)O)C1` (stereo not drawn), 106 to 108 °C.
The figure for `CC(/C=C/c1c(C)sc(C)c1C)=C(F)\C=C\C(C)=C\C(N)=O` is 212 to 215 °C; for `Clc1nc(Cl)nc(C2CC2)n1` it is 106 to 107 °C; for `C#CCN(Cc1ccc2nc(C)[nH]c(=O)c2c1)c1ccc(C(=O)NCc2cccc([N+](=O)[O-])c2)c(N)c1` it is 86 to 92 °C.
Take `CCCCCc1c(C(C)C)cc(C(C)C)c(C(C)O)c1-c1ccc(F)cc1` (stereo not drawn): the melting point amounted to 126 °C.
In the case of `O=C(NCCOc1ccc(CC(Sc2ccccc2)C(=O)O)cc1)c1ccc(-c2ccccn2)cc1` (stereo not drawn) it was 75 to 77 °C; in that of `CNCC1Cc2cc(-c3ccccc3)cc(-c3ccc(Cl)cc3)c2O1` (stereo not drawn), more than 250 °C; in that of `CC12CC(N3CCC4(CC3)OCCO4)C(O)CC1CCC1C2CCC2(C)C(O)C(N3CCCCC3)CC12` (stereo not drawn), 216 to 218 °C.
The figure for `CC(=O)OCC1OC(n2cc(C(I)=CI)c(=O)[nH]c2=O)CC1OC(C)=O` (stereo not drawn) is 76 to 78 °C.
In the case of `COCCN(C)Cc1ccc(NC(=O)C#Cc2ccc(-c3ccc(Cl)cc3)cc2)cc1` it was 130 to 133 °C.
As for `COc1ccc(-c2c3c(cc4ccc(OC(C)C)cc24)C(=O)NC3)cc1`, the melting point was in the range of 212 to 215 °C.
Regarding `CC(C)(C)OC(=O)Nc1cc(N2CCC(O)CC2)c(I)cc1[N+](=O)[O-]`, the melting point lay within 58 to 60 °C.
In the case of `CCC12CCC3C4CCC(=O)C=C4C(C)CC3C1CCC2O` (stereo not drawn) it was 127 to 130 °C; in that of `CC12CC(N3CCC(O)CC3)C(O)CC1CCC1C2CCC2(C)C(O)C(N3CCC(O)CC3)CC12` (stereo not drawn), 248 to 250 °C.
The figure for `O=C1N=C(N2CCSCC2)SC1=Cc1cccc(-c2cc(F)c(O)c(C34CC5CC(CC(C5)C3)C4)c2)c1` is 180 to 184 °C; for `COc1ccc(C(=O)NCc2ccc(NC3=NCCN3)cc2)cc1` it is 160 to 161 °C.
In the case of `CCOC(=O)c1cc2cc(OCCOC)cc(N)c2[nH]1` it was 162 to 163 °C; in that of `Cn1cc(C2=C(c3c4n(c5ccccc35)CCC(CCN)C4)C(=O)NC2=O)c2ccccc21` (stereo not drawn), 160 to 165 °C; in that of `CCCOc1nc(N)nc2nc[nH]c12`, 198 to 200 °C.
Molecule `C/C(=C/C#N)c1ccc2c(c1)C(C)(C)OC(=O)N2` displayed a melting point of 213 to 215 °C.
The figure for `CC1(C)OC(=O)Nc2ccc(-c3ccc(F)c(F)c3)cc21` is 207 to 208 °C; for `Cc1nc(-c2ccc(N)c(C#N)c2)c[nH]1` it is 89 to 91 °C.
In the case of `Cc1cnc2n1-c1ccc(Cl)cc1C(c1ccccc1)=NC2` it was 190 to 191 °C; in that of `CCc1ccc(C(=O)CCCSc2nnnn2C)cc1`, 68 to 69 °C; in that of `COc1c(Cl)ccc(-c2nc(C=O)c(Cl)c(N)c2F)c1F`, 192 to 196 °C.
The figure for `CCCc1nn(C)c2c(=O)n(CCOc3ccc(OC(C)(C)C(=O)O)cc3)c(CC)nc12` is 108 to 110 °C; for `O=C(SCSc1c[nH]nn1)c1ccccc1` it is 72.5 to 73.5 °C.
For the molecule `COC(=O)c1c(C(C)C)nc2c(c1-c1ccc(F)cc1)CCCN2`, the melting point was 168 to 170 °C.
In the case of `CC(=O)Nc1ccc(F)cc1OCc1ccccc1` it was 136 to 138 °C.
Take `COc1ccc(CSc2ccc(S(N)(=O)=O)s2)cc1`: the melting point was in the range of 139 to 141 °C.
In the case of `CSCC[C@H](NC(=O)OC(C)(C)C)C(=O)NCC(=O)Oc1c(Cl)c(Cl)c(Cl)c(Cl)c1Cl` it was 169 to 171 °C; in that of `CCOC(=O)c1cn(CC)c2nc(N3CCCC3)ncc2c1=O`, 202 °C; in that of `COc1ccccc1-c1cnn2ccc(N3CCN(C(=O)OC(C)C)CC3)nc12`, 57 to 59 °C.
The molecule `CNC(=O)NC1CCC(OC)c2sccc21` (stereo not drawn) displayed a melting point of 152 to 159 °C.
In the case of `CC1(C)CC(NCC(O)COc2ccc(C(=O)c3ccccc3)c(O)c2)CC(C)(C)N1OC1CCCCC1` (stereo not drawn) it was 118 to 121 °C; in that of `CC(CN1C(=O)C2(COc3cc4c(cc32)CCO4)c2ccccc21)OCOCc1ccccc1` (stereo not drawn), 49 to 52 °C; in that of `Cc1nc2c3c(c(C(=O)NCCO)cc2n1C)CCC1(Cc2ccccc2C1)N3`, 167 to 168 °C.
In the case of `O=C(NO)c1ccc2c(c1)CN(C(=O)c1ccc(-c3ccccc3)cc1)C2` it was 160 to 190 °C; in that of `Cc1nc2cc(Br)ccc2c(=O)n1C1CCC(=O)NC1=O` (stereo not drawn), 315 to 317 °C; in that of `CCCCCCCCCCCCc1cc(O)ccc1S`, 75 to 76 °C.
The molecule `CN(C)CC(=O)NCc1cccc(-c2csc(N=C(N)N)n2)n1` came in with a melting point of 199 °C.
The figure for `CC(C)CC(NC(=O)C(Cc1c[nH]cn1)NC(=O)C(CC(=O)NCCc1ccccc1)Cc1cccc2ccccc12)C(O)C(=O)OCc1ccccc1` (mixture of isomers) is 81 to 86 °C; for `CC1Cc2ccc(Cl)cc2C(c2ccc([N+](=O)[O-])cc2)O1` (stereo not drawn) it is 120 to 123 °C.
The figure for `COc1cc2ncc(C#N)c(Nc3cccc(O)c3C)c2cc1OC` is 255 to 257 °C; for `CC(O)Cc1cc2c3ccccc3[nH]c(=O)n2n1` (stereo not drawn) it is 228 to 229 °C; for `C=CCN1C(C)(C)CC(Oc2nc(OC3CC(C)(C)N(CC=C)C(C)(C)C3)nc(OC3CC(C)(C)N(CC=C)C(C)(C)C3)n2)CC1(C)C` it is 218 to 219 °C.
`COC(=O)c1cc(O)c2c(c1)c1ccccc1n2C` gave a melting point of 204 to 206 °C.
The figure for `Cc1ccc(C(=O)NCCc2ccccn2)c(Nc2ccc3[nH]ncc3c2)n1` is 98 to 99 °C; for `CC(=C1SCCCS1)c1cccc(N)c1` it is 99 to 100 °C.
`CN1CC(CO)C=C2c3cccc4[nH]c(Br)c(c34)CC21` (stereo not drawn) displayed a melting point of 193 °C.
In the case of `CCCc1c(OCCCCCOc2ccc3ccc(OCC(=O)O)cc3c2CCC(=O)O)ccc2c1OCCC2=O` it was 175 to 178 °C; in that of `CC1(C)CCC[C@H](NC(c2ccccc2)(c2ccccc2)c2ccccc2)C(=O)N1`, 139 to 140 °C.
